In patent US8124580B2, “Apolipoprotein A1 mimetics and uses thereof” (Trustees of Tufts College, priority 2004, dated 2012):
Entries after “also recorded” stand apart in the source; their conditions may differ. [ ]: non-standard residue; d: D form.

Columns and labels:
[1] = Association with DMPC phospholipid, gel filtration chromatography; assay type: binding; details: FIGS. 2A-D
From the text: To assess the ability of purified Rev-D4F to interact with phospholipids, the purified peptidomimetic was mixed with 1,2-dimyristoyl-sn-glycero-3-phosphocholine (DMPC), which is a component of membrane lipid bi-layer with which cholesterol is associated, and fractionated by gel filtration chromatography.

[2] = molecular target: T1, Scavenger receptor class B type I (SR-BI) (Homo sapiens, UniProt Q8WTV0); assay: SR-BI-dependent cholesterol efflux from SR-BI-transfected cells; assay type: cell-based
T1 construct: expressed in transfected cells
T1 sequence (Q8WTV0 1-509 isoform Q8WTV0-2): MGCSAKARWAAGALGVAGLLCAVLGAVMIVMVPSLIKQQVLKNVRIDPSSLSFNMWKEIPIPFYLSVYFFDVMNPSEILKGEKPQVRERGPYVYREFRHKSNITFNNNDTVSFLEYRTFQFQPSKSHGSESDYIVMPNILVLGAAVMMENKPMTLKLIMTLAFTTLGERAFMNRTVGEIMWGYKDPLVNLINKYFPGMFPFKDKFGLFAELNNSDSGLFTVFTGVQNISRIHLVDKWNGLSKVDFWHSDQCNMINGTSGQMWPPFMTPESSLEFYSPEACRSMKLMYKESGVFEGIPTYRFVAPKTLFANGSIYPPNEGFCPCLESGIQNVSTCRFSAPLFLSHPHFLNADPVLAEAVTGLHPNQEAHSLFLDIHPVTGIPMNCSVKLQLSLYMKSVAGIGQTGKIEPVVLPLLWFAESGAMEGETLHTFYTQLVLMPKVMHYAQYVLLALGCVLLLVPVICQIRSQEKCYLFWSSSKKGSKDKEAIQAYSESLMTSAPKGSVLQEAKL
Description: (§1) The effect of Rev-D4F on the cholesterol efflux in a […] was examined. Scavenger receptor class B type I (“SR-BI”) is a receptor for HDL normally expressed on the surface of the liver cells. Tritiated cholesterol was added to cells transfected with SR-BI, with wild type Apo A-I, L4F peptide, D4F peptide, or Rev-D4F peptidomimetic, and the percentage of cholesterol efflux was determined.

[3] = molecular target: T2, ATP-binding cassette protein A1 (ABCA1) (Homo sapiens, UniProt O95477); assay: ABCA1-dependent cholesterol efflux from ABCA1-transfected cells; assay type: cell-based
T2 construct: expressed in transfected cells
T2 sequence (O95477 whole entry, species assumed): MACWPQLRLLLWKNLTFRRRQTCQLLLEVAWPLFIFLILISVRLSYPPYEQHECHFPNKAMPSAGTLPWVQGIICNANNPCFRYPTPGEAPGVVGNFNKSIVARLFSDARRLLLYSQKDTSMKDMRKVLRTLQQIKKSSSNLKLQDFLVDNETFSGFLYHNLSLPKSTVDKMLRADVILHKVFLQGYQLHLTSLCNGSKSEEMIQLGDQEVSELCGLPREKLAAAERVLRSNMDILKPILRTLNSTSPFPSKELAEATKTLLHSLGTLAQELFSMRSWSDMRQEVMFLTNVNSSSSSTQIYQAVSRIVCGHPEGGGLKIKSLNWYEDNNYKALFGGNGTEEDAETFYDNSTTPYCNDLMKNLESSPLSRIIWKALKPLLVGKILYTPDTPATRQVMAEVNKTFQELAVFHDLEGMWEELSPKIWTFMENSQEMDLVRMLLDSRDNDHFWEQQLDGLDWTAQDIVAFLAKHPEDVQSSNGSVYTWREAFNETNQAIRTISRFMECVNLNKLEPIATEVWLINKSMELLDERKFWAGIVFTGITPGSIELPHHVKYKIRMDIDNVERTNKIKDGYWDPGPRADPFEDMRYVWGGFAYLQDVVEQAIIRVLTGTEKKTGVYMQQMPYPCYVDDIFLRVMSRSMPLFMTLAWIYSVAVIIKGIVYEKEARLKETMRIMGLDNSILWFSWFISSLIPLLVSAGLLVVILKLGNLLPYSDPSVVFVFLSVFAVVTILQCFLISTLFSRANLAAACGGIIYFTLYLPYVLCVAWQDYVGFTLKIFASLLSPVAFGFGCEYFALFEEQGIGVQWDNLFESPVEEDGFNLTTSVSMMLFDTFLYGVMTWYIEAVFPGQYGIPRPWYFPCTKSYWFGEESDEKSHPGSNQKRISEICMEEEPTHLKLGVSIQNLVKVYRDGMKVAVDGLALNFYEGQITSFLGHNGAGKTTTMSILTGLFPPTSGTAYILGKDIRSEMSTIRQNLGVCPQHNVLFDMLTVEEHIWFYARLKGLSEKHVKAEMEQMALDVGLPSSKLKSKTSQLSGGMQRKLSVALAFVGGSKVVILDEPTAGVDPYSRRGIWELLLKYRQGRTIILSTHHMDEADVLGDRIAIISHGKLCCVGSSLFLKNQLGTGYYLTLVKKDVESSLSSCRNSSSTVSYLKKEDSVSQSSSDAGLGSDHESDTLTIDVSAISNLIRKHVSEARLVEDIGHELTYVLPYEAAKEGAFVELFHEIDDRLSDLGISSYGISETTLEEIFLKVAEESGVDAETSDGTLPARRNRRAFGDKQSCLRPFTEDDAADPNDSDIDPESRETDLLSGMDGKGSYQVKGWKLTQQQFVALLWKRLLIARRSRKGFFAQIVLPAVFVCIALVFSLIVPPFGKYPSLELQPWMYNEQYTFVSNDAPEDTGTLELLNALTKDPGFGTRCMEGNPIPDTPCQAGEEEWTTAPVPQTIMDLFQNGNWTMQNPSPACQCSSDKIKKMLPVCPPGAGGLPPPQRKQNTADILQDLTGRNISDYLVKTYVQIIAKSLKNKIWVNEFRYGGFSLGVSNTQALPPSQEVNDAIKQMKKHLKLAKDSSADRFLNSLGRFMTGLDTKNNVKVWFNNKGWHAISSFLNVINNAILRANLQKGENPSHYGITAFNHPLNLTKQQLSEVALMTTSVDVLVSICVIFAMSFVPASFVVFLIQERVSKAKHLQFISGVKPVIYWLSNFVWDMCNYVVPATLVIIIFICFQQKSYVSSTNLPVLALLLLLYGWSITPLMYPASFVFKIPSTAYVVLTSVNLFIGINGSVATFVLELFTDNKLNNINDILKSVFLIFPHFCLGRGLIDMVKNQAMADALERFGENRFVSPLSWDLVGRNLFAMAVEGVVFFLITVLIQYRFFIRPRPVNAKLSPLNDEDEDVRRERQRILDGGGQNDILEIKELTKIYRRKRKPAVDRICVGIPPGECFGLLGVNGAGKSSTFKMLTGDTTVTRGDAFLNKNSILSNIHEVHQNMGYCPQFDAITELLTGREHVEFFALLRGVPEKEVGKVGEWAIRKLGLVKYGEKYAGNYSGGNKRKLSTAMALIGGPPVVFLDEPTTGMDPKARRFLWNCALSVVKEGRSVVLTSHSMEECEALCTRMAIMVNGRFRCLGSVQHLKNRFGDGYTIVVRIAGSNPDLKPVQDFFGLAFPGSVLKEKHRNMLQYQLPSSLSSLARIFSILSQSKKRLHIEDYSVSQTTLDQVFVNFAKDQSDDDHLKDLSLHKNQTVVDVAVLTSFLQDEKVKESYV
Description: as §1
The effect of Rev-D4F on the cholesterol efflux in a manner dependent on ATP-binding cassette protein A1 (“ABCA1”) was also examined using the same methodology as for SR-BI, except that ABCA1 was transfected.

[4] = test system: human aortic endothelial cells; assay: Lipid peroxidation caused by human aortic endothelial cells (TBARS); assay type: cell-based; details: FIG. 5; for lipid peroxidation (TBARS) caused by endothelial cells: human aortic endothelial cells as oxidant
From the text: (§2) The present study measured the ability of Rev-D4F, D-4F, and L-4F mimetic peptides to inhibit lipid peroxidation caused by human aortic endothelial cells and copper(II) sulfate, based upon inhibiting an increase in concentrations of thiobarbituric acid-reactive substances (TBARS).

[5] = test system: lipid peroxidation caused by copper(II) sulfate; assay: Lipid peroxidation caused by copper(II) sulfate (TBARS); assay type: biochemical; details: copper(II) sulfate as oxidant, FIG. 6
From the text: as §2

[6] = test system: monocyte chemotactic protein-1 (MCP-1) mRNA; assay: MCP-1 mRNA expression in endothelial cells; assay type: cell-based
From the text: This study analyzed the effects of Rev-D4F, D-4F, and L-4F mimetic peptides to reduce the levels of an […] marker, monocyte chemotactic protein-1 (MCP-1). Based upon levels of MCP-1 mRNA, all three peptidomimetics reduced the amount of MCP-1.

apoE-null mice = assay: Atherosclerosis in apoE-null mice, oral in drinking water; assay type: in vivo; details: aortic root, 1.6 mg/day orally, 6 weeks; for decrease in lesion area as compared to water control: p<0.02
Description: In this study, the comparative effect of Rev-D4F, D-4F, and L-4F mimetic peptides on atherosclerosis in apoE-null mice was measured. Four groups of apoE-null mice (4 weeks old, n=15) were fed a chow diet, and administered water (control), Rev-D4F, D-4F, or L-4F mimetic peptides (1.6 mg/day, n=12/group) orally in drinking water for 6 weeks. Quantitative morphometry of aortic root cross sections stained with oil-red O was performed with NIH software.

LDL = details: cited from earlier work; for LDL oxidation: previously shown
[7] = test system: LDL-induced monocyte chemotactic activity; details: previously shown; cited from earlier work
LDL receptor-null mice = details: oral administration; cited from earlier work
[8] = in vivo; cited from earlier work

Substance | spontaneous association with DMPC (co-elution with phospholipid) [1] | efficiency in promoting SR-BI-dependent cholesterol efflux compared to Apo A-I ([2]; per mole basis) | efficiency in promoting SR-BI-dependent cholesterol efflux compared to Apo A-I ([2]; per weight basis) | efficiency in promoting ABCA1-dependent cholesterol efflux compared to Apo A-I ([3]; per mole basis) | efficiency in promoting ABCA1-dependent cholesterol efflux compared to Apo A-I ([3]; per weight basis) | lipid peroxidation (TBARS) caused by endothelial cells [4] | lipid peroxidation (TBARS) caused by copper sulfate [5] | MCP-1 mRNA level ([6]; FIG. 7) | effect on atherosclerotic lesions (apoE-null mice) | LDL and phospholipid oxidation (LDL; mechanisms independent of HDL-mediated processes) | LDL oxidation (LDL) | LDL-induced monocyte chemotactic activity [7] | inhibition in lipid peroxidation compared with D-4F ([4]; endothelial cells as oxidant) | lipid peroxidation (TBARS) caused by endothelial cells ([4]; listed as Rev D-4-F) | inhibition in lipid peroxidation compared with D-4F [5] | lipid peroxidation (TBARS) caused by copper sulfate ([5]; listed as Rev D-4-F) | MCP-1 mRNA level ([6]; FIG. 7, listed as Rev D-4-F) | decrease in lesion area as compared to water control (apoE-null mice) | reduction of atherosclerotic lesions (LDL receptor-null mice) | stability upon oral administration [8]
Ac-D-W-F-K-A-F-Y-D-K-V-A-E-K-F-K-E-A-F-NH2 [L-4F] (Ac-DWFKAFYDKVAEKFKEAF-NH2) | associated spontaneously | less efficient | more efficient | less efficient | more efficient | significantly decreased; also recorded: inhibit | significantly decreased; also recorded: inhibit | reduced; also recorded: inhibit | no effect | inhibits | block | block |  |  |  |  |  |  |  | 
Ac-F-A-E-K-F-K-E-A-V-K-D-Y-F-A-K-F-W-D-NH2 (Ac-[dF][dA][dE][dK][dF][dK][dE][dA][dV][dK][dD][dY][dF][dA][dK][dF][dW][dD]-NH2; SMILES CC(=O)N[C@H](Cc1ccccc1)C(=O)N[C@H](C)C(=O)N[C@H](CCC(=O)O)C(=O)N[C@H](CCCCN)C(=O)N[C@H](Cc1ccccc1)C(=O)N[C@H](CCCCN)C(=O)N[C@H](CCC(=O)O)C(=O)N[C@H](C)C(=O)N[C@@H](C(=O)N[C@H](CCCCN)C(=O)N[C@H](CC(=O)O)C(=O)N[C@H](Cc1ccc(O)cc1)C(=O)N[C@H](Cc1ccccc1)C(=O)N[C@H](C)C(=O)N[C@H](CCCCN)C(=O)N[C@H](Cc1ccccc1)C(=O)N[C@H](Cc1c[nH]c2ccccc12)C(=O)N[C@H](CC(=O)O)C(N)=O)C(C)C) [Rev-D4F] | associated spontaneously | less efficient | more efficient | less efficient | more efficient | significantly decreased | significantly decreased | reduced |  |  |  |  | significantly greater | inhibit | significantly greater | inhibit | inhibit | 46% |  | 
Apo A-I: the major HDL apoprotein; intact/wild type protein used as comparator | only certain portions |  |  |  |  |  |  |  |  |  |  |  |  |  |  |  |  |  |  | 
Ac-D-W-F-K-A-F-Y-D-K-V-A-E-K-F-K-E-A-F-NH2 [D-4F] (Ac-[dD][dW][dF][dK][dA][dF][dY][dD][dK][dV][dA][dE][dK][dF][dK][dE][dA][dF]-NH2) | associated spontaneously | less efficient | more efficient | less efficient | more efficient | significantly decreased; also recorded: inhibit | significantly decreased; also recorded: inhibit | reduced; also recorded: inhibit |  |  | block | block |  |  |  |  |  | 33% | ~80% | stable
